Assay results from patent publication US20070282007A1, “TREATMENT OF PAIN DISORDERS WITH trans 4-(3,4-DICHLOROPHENYL)-1,2,3,4-TETRAHYDRO-1-NAPHTHALENAMINE AND ITS FORMAMIDE” (SEPRACOR INC., priority 2006, published 2007).

Assays:
M5 = target: T1, M5 (Homo sapiens, UniProt P08912); assay: In vitro radioligand binding assay, M5; settings: read-out: Ki, M5
T1 sequence (P08912 1-532): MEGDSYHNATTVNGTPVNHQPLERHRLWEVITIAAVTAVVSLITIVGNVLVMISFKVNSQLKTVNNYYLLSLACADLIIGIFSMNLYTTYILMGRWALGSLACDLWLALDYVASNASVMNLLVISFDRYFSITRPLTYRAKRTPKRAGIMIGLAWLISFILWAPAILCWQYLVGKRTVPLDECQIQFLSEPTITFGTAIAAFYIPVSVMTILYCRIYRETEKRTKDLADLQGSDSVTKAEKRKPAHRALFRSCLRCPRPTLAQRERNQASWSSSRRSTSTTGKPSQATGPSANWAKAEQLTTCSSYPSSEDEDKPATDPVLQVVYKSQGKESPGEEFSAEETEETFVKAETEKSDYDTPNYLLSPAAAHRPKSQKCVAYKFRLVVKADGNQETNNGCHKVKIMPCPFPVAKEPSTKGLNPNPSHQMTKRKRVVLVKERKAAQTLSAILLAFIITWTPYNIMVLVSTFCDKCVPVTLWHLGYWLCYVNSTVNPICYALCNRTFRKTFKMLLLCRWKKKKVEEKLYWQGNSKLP

M2 = M2 (Homo sapiens, UniProt P08172); assay: In vitro radioligand binding assay, M2
Sequence of M2 (P08172 whole entry): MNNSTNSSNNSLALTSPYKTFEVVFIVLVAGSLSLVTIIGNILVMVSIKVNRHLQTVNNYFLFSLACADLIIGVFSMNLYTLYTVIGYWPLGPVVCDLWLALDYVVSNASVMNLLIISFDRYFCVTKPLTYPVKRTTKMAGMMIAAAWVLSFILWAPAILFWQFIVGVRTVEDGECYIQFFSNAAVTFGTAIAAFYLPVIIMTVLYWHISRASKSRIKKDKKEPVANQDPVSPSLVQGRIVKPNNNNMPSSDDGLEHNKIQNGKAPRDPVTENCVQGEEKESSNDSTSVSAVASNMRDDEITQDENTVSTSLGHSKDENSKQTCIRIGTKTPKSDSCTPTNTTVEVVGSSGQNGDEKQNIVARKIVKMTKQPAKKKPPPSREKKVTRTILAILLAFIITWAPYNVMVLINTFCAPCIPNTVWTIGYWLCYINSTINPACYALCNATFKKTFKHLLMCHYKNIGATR

D1 = D1 (Homo sapiens, UniProt P21728); assay: In vitro radioligand binding assay, D1
Sequence of D1 (P21728 whole entry): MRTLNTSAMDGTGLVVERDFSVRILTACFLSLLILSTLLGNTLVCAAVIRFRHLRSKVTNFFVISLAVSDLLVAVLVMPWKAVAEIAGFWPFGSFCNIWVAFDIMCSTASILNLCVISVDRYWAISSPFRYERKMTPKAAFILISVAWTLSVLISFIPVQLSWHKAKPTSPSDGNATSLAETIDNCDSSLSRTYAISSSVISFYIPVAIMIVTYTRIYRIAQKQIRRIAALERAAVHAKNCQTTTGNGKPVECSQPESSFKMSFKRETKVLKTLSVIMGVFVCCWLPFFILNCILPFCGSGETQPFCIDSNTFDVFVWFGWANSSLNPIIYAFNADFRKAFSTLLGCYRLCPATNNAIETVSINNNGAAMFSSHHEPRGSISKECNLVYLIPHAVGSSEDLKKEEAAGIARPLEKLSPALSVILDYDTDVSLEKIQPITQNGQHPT

5-HT1A = target: T2, 5-HT1A (Homo sapiens, UniProt P08908); assay: In vitro radioligand binding assay, 5-HT1A
T2 sequence (P08908 1-422): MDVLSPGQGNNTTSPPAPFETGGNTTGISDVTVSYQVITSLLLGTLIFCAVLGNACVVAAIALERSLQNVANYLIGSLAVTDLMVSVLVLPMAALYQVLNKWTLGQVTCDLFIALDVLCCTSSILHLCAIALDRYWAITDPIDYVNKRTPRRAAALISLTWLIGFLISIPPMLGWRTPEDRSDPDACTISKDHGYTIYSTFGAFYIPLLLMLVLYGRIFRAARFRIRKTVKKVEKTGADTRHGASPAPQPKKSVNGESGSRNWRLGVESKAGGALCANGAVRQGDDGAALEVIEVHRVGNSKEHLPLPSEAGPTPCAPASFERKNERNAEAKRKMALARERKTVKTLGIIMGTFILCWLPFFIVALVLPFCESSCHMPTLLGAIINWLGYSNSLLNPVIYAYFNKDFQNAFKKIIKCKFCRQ

hERG channel = hERG channel (Homo sapiens, UniProt Q12809); assay: hERG channel current in stably transfected HEK293 cells
Sequence of hERG channel (Q12809 whole entry): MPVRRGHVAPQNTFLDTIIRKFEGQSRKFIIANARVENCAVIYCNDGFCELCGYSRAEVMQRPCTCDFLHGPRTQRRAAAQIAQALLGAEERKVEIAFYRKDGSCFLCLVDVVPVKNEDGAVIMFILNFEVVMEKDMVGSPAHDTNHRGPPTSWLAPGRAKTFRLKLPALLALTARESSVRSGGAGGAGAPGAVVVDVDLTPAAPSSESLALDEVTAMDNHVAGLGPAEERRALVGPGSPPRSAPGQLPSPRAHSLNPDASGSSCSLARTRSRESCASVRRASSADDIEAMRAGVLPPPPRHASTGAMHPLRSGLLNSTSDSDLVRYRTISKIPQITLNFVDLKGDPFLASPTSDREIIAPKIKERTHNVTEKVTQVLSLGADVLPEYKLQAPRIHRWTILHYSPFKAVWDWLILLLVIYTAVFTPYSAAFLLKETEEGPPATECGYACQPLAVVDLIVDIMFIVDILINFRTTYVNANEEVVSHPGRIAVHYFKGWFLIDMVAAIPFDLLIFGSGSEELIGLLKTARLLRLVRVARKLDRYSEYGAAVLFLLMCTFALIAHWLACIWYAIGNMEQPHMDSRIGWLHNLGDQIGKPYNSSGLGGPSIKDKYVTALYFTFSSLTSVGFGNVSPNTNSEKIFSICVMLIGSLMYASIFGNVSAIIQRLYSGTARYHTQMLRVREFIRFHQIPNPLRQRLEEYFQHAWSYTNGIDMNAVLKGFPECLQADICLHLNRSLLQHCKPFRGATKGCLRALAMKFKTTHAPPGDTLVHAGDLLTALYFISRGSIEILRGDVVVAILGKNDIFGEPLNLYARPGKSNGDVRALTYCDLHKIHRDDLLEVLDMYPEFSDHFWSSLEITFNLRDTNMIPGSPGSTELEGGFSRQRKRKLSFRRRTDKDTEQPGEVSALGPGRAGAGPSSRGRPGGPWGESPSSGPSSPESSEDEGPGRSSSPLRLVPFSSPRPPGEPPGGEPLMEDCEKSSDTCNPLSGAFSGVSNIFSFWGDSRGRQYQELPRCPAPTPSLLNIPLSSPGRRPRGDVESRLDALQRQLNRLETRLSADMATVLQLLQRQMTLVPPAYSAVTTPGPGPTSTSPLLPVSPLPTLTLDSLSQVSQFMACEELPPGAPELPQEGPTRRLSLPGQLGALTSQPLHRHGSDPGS
Description: Studies were conducted to determine effects on IKr, the rapidly activating delayed rectifier cardiac potassium current in the human heart. […] In this assay system, HERG channel current serves as a surrogate for IKr.

5-HT2C = 5-HT2C (Homo sapiens, UniProt P28335); assay: In vitro radioligand binding assay, 5-HT2C
Sequence of 5-HT2C (P28335 33-458, species assumed): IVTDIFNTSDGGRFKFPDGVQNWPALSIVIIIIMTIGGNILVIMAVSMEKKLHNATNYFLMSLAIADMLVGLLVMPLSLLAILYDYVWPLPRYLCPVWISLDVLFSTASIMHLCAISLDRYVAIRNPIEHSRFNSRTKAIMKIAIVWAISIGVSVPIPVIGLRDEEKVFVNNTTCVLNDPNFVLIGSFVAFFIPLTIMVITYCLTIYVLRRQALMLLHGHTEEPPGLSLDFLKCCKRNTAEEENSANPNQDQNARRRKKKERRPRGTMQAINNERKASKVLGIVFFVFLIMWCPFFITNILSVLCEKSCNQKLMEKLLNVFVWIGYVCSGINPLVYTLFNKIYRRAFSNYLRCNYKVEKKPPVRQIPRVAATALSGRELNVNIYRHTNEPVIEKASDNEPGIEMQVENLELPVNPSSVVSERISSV

5-HT1B = 5-HT1B (Homo sapiens, UniProt P28222); assay: In vitro radioligand binding assay, 5-HT1B
Sequence of 5-HT1B (P28222 whole entry, species assumed): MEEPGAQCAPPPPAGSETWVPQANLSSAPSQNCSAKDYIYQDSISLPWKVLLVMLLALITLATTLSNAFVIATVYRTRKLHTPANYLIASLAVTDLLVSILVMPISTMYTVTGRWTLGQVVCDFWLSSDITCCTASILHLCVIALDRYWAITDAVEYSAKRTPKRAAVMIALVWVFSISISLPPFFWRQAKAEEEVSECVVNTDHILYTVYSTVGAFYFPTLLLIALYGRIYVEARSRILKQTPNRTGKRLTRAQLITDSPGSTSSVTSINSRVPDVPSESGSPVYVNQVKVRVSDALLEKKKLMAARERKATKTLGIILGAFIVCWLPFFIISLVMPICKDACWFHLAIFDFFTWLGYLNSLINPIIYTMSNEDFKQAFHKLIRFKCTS

Long-Evans derived rats [1] = assay: Porsolt forced swim test; assay type: in vivo, rat; settings: for Mean Immobility Time (% of Total) ± SEM, Day 2 Study: 3 administrations
Description: Performance in the Porsolt forced swim test was evaluated for sertraline and Compound P following protocols outlined in Porsolt R. D., et al., Arch. Int. Pharmacodyn., 229: 327 ([…]).
The Porsolt forced swim test is a model of “behavioral despair”, which has been used as an in vivo model for assessing potential antidepressant-like activity. Both test articles were dissolved in physiological saline (vehicle) and administered intraperitoneally. […] Long-Evans derived rats were used.

Beagle dogs = assay: Cardiovascular safety study in conscious telemetered dogs; assay type: in vivo; settings: single oral doses 0.5, 1.5 and 5 mg/kg
Description: There were four animals/compound and each animal within the treatment group was exposed to the three doses (plus a empty capsule control), in a dose ramp-up manner with a minimum of 72 hours between doses.

Long-Evans derived rats [2] = assay: Spontaneous locomotor activity study; assay type: in vivo, rat; settings: mean ± SEM
Description: The effects on locomotor activity were studied in Long-Evans derived rats following protocol outlined in Dews P., Br. J. Pharmacol., 8: 46 (1953).
This effect was still evident 2 hours following drug administration. On the basis of these studies, CNS effects and long duration of action may be anticipated at sufficient clinical doses.

## CN[C@H]1CC[C@@H](c2ccc(Cl)c(Cl)c2)c2ccccc21 [Sertraline, (1S,4S)-cis 4-(3,4-dichlorophenyl)-1,2,3,4-tetrahydro-N-methyl-1-napthalenamine, reference compound]
M5
  Ki: 2000 nM
M2
  Ki: 3700 nM
D1
  Ki: 1600 nM
5-HT1A
  Ki: 2400 nM
hERG channel
  IC50: 1100 nM
5-HT2C
  Ki: 5600 nM
5-HT1B
  Ki: 8500 nM
Long-Evans derived rats [1]; 2.5 mg/kg i.p.
  Mean Immobility Time (% of Total) ± SEM, Day 2 Study: 86 ± 3 % of Total
Long-Evans derived rats [1]; 2.5 mg/kg i.p., 7 administrations
  Mean Immobility Time (% of Total) ± SEM, Day 4 Study: 78 ± 3 % of Total
Long-Evans derived rats [1]; 5.0 mg/kg i.p.
  Mean Immobility Time (% of Total) ± SEM, Day 2 Study: 77 ± 2 % of Total
Long-Evans derived rats [1]; 5.0 mg/kg i.p., 7 administrations
  Mean Immobility Time (% of Total) ± SEM, Day 4 Study: 64 ± 2 % of Total
Long-Evans derived rats [1]; 10.0 mg/kg i.p.
  Mean Immobility Time (% of Total) ± SEM, Day 2 Study: 72 ± 3 % of Total
Long-Evans derived rats [1]; 10.0 mg/kg i.p., 7 administrations, error is std dev (N = 2)
  Mean Immobility Time (% of Total), Day 4 Study: 70 ± 4 % of Total
Beagle dogs
  effect on heart rate, blood pressure or ECG parameters (including QTc): no effect
Long-Evans derived rats [2]; 2.5 mg/kg single i.p. dose
  Total Activity Counts, 71–80 Minutes: 34 ± 9
  Total Activity Counts, 91–100 Minutes: 25 ± 9
  Total Activity Counts, 111–120 Minutes: 30 ± 10
  Total Activity Counts, Total 1st Hour: 559 ± 57^2
  Total Activity Counts, Total 2nd Hour: 211 ± 60
Long-Evans derived rats [2]; 5.0 mg/kg single i.p. dose
  Total Activity Counts, 71–80 Minutes: 32 ± 11
  Total Activity Counts, 91–100 Minutes: 14 ± 9
  Total Activity Counts, 111–120 Minutes: 16 ± 11
  Total Activity Counts, Total 1st Hour: 327 ± 55
  Total Activity Counts, Total 2nd Hour: 95 ± 41
